The source made the active and inactive calls.
Experiments:
[1] = tested on: Rattus norvegicus; experiment: Inhibition of FAAH in Sprague-Dawley rat brain homogenate assessed as time duration needed for enzyme activity recovery by measuring [3H]-anandamide hydrolysis at 20 mg/kg by liquid scintillation analysis; type: functional
[2] = tested on: Rattus norvegicus; experiment: Inhibition of FAAH in Sprague-Dawley rat brain homogenate assessed as increase in OEA levels at 20 mg/kg after 0.5 to 4 hrs by […]; type: functional, organism-based
[3] = tested on: Rattus norvegicus; experiment: Inhibition of FAAH in Sprague-Dawley rat brain homogenate assessed as increase in PEA levels at 20 mg/kg after 0.5 to 4 hrs by […]; type: functional, organism-based
[4] = Dissociation constant, pKa of the compound at pH 7.2; type: physicochemical
[5] = Clearance in Sprague-Dawley rat; type: ADME, organism-based; conditions: in vivo
[6] = tested on: Rattus norvegicus; experiment: Inhibition of FAAH in Sprague-Dawley rat brain homogenate assessed as residual activity measured as [3H]-anandamide hydrolysis at 20 mg/kg after 1 hr by liquid scintillation analysis; type: functional
[7] = tested on: Rattus norvegicus; experiment: Inhibition of FAAH in Sprague-Dawley rat brain homogenate assessed as reduction in residual activity measured as [3H]-anandamide hydrolysis at 20 mg/kg after 30 mins by liquid scintillation analysis; conditions: read-out: INH
[8] = Oral bioavailability in Sprague-Dawley rat; type: ADME, organism-based; conditions: in vivo
[9] = Volume of distribution at Steady state in Sprague-Dawley rat; type: ADME, organism-based; conditions: in vivo, read-out: Vdss
[10] = tested on: Rattus norvegicus; experiment: Inhibition of FAAH in Sprague-Dawley rat brain homogenate assessed as residual activity measured as [3H]-anandamide hydrolysis at 20 mg/kg after 4 hrs by liquid scintillation analysis; type: functional
[11] = Dissociation constant, pKa of the compound; type: physicochemical
[12] = molecular target: T1, Fatty-acid amide hydrolase 1 (Rattus norvegicus, UniProt P97612); experiment: Apparent inhibition of recombinant rat FAAH expressed in SK-N-MC cells assessed as [3H]-anandamide hydrolysis after 1 hr by liquid scintillation analysis; type: cell-based
T1 sequence (P97612 whole entry): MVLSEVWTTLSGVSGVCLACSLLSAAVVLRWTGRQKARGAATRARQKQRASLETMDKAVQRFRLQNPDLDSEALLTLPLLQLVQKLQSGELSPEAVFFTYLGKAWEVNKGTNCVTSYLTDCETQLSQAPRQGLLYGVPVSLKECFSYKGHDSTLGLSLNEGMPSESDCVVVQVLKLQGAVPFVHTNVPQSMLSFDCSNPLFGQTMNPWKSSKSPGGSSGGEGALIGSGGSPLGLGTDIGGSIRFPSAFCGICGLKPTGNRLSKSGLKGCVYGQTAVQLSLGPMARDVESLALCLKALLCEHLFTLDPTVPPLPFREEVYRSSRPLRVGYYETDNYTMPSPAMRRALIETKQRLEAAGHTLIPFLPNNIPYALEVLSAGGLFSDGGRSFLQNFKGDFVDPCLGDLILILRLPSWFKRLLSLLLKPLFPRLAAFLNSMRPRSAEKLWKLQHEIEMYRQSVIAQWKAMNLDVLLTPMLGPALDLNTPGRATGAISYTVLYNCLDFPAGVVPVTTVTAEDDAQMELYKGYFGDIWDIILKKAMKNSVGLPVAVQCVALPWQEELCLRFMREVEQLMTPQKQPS

[13] = molecular target: T2, Fatty-acid amide hydrolase 1 (Homo sapiens, UniProt O00519)
T2 sequence (O00519 whole entry): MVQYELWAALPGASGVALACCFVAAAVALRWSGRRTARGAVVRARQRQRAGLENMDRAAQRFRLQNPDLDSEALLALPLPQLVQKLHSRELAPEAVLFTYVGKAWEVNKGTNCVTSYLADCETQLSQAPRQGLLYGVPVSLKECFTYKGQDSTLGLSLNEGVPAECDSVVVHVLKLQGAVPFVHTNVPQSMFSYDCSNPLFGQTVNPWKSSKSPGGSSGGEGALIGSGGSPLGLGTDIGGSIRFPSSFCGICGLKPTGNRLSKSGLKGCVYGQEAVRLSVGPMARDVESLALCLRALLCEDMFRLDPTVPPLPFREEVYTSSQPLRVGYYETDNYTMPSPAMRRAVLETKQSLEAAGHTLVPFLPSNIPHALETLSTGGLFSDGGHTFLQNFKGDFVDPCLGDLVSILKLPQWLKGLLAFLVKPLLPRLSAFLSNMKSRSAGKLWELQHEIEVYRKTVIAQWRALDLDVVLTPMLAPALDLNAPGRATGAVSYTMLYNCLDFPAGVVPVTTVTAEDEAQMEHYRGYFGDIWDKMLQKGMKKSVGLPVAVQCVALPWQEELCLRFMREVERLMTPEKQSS

[14] = Ratio of drug level in brain to plasma in Sprague-Dawley rat at 20 mg/kg via oral gavage; type: ADME, organism-based; conditions: read-out: BPR
[15] = tested on: Plasma; experiment: Drug uptake in Sprague-Dawley rat plasma at 20 mg/kg via oral gavage after 4 hrs by LC-MS/MS analysis; type: ADME, organism-based; conditions: in vivo
[16] = tested on: Brain; experiment: Drug uptake in Sprague-Dawley rat brain at 20 mg/kg via oral gavage after 4 hrs by LC-MS/MS analysis; type: ADME, organism-based; conditions: in vivo
[17] = tested on: Rattus norvegicus; experiment: In-vivo reversible inhibition of FAAH in Sprague-Dawley rat brain homogenate assessed as residual activity measured as [3H]-anandamide hydrolysis after 48 hrs by liquid scintillation analysis; type: functional, organism-based
[18] = Ratio of drug level in brain to plasma in Sprague-Dawley rat at 0.6 mg/kg via oral gavage; type: ADME, organism-based; conditions: read-out: BPR
[19] = Ratio of drug level in brain to plasma in Sprague-Dawley rat at 6 mg/kg via oral gavage; type: ADME, organism-based; conditions: read-out: BPR
[20] = tested on: Rattus norvegicus; experiment: Inhibition of FAAH in Sprague-Dawley rat brain homogenate assessed as increase in OEA levels at 0.1 to 100 mg/kg measured 4 hrs post dosing by […]; type: functional, organism-based
[21] = tested on: Rattus norvegicus; experiment: Inhibition of FAAH in Sprague-Dawley rat brain homogenate assessed as increase in PEA levels at 0.1 to 100 mg/kg measured 4 hrs post dosing by […]; type: functional, organism-based
[22] = organism: Rattus norvegicus; conditions: Sprague-Dawley, Brain, 6 mg/kg
Description: Inhibition of FAAH in Sprague-Dawley rat brain homogenate assessed as increase in OEA levels at 6 mg/kg after 0.5 to 4 hrs by liquid scintillation analysis

[23] = tested on: Rattus norvegicus; experiment: Inhibition of FAAH in Sprague-Dawley rat brain homogenate assessed as residual activity measured as [3H]-anandamide hydrolysis at 6 mg/kg after 4 hrs by liquid scintillation analysis; type: functional
[24] = tested on: Rattus norvegicus; experiment: Inhibition of FAAH in Sprague-Dawley rat brain homogenate assessed as time duration needed for enzyme activity recovery by measuring [3H]-anandamide hydrolysis at 6 mg/kg by liquid scintillation analysis; type: functional
[25] = organism: Rattus norvegicus; conditions: Sprague-Dawley, Brain, 6 mg/kg; remark: listed apart in the source
Description: Inhibition of FAAH in Sprague-Dawley rat brain homogenate assessed as increase in PEA levels at 6 mg/kg after 0.5 to 4 hrs by liquid scintillation analysis

[26] = organism: Rattus norvegicus; conditions: Sprague-Dawley, Brain, 20 mg/kg
Description: Inhibition of FAAH in Sprague-Dawley rat brain homogenate assessed as reduction in residual activity measured as [3H]-anandamide hydrolysis at 20 mg/kg measured after 0.5 to 6 hrs by liquid scintillation analysis

[27] = tested on: Rattus norvegicus; experiment: Inhibition of FAAH in Sprague-Dawley rat brain homogenate assessed as residual activity measured as [3H]-anandamide hydrolysis at 20 mg/kg within 30 mins by liquid scintillation analysis; type: functional
[28] = Ratio of drug level in brain to plasma in Sprague-Dawley rat at 10 mg/kg via oral gavage; type: ADME, organism-based; conditions: read-out: BPR

## O=C(Nc1cccc2nccn12)N1CCN(Cc2cccc(Oc3ccc(Cl)cc3)c2)CC1
[1]
  Time: 24 h
[2]
  OEA level increase (activity call): Active
[3]
  FAAH inhibition (PEA level increase), active/inactive: Active
[4]
  pKa: 6.8

## O=C(Nc1cnc2ccccn12)N1CCN(Cc2cccc(Oc3ccc(Cl)cc3)c2)CC1
[5]
  clearance: 63.3 mL/min/kg
[6]
  Activity: < 10%
[7]
  inhibition in vivo at 20 mg/kg: 60%
[8]
  bioavailability: 60%
[9]
  Vd: 10.7 L/kg
[1]
  Time: 24 h
[2]
  OEA level increase (activity call): Active
[10]
  Activity: <5%
[3]
  FAAH inhibition (PEA level increase), active/inactive: Active
[4]
  pKa: 6.8

## O=C(Nc1cc[nH]n1)N1CCN(Cc2cccc(Oc3ccc(Cl)cc3)c2)CC1
[5]
  clearance: 8.33 mL/min/kg
[8]
  bioavailability: 75%
[11]
  pKa: 2.5
[9]
  Vd: 2 L/kg
[1]
  Time: 24 h
[2]
  OEA level increase (activity call): Active
[3]
  FAAH inhibition (PEA level increase), active/inactive: Active

## O=C(Nc1nnn[nH]1)N1CCN(Cc2cccc(Oc3ccc(Cl)cc3)c2)CC1
[5]
  clearance: 3.33 mL/min/kg
[8]
  bioavailability: 100%
[9]
  Vd: 1.1 L/kg
[4]
  pKa: 4.9

## O=C(Nc1cccnc1)N1CCCC(Cc2cccc(Oc3ccc(F)cc3)c2)C1 (stereo unspecified)
[12]
  IC50: 41 nM
[1]
  Time: 24 h
[2]
  OEA level increase (activity call): Active
[13]
  IC50: 28 nM
[3]
  FAAH inhibition (PEA level increase), active/inactive: Active
[14]
  Kp: 0.33

## O=C(Nc1cccnc1)N1CCC(Cc2cccc(Oc3ccc(Cl)cc3)c2)CC1
[12]
  IC50: 215 nM
[1]
  Time: 24 h
[2]
  OEA level increase (activity call): Active
[13]
  IC50: 4.3 nM
[3]
  FAAH inhibition (PEA level increase), active/inactive: Active
[14]
  Kp: 2.26

## N#Cc1ccncc1NC(=O)N1CCN(Cc2cccc(Oc3ccc(Cl)cc3)c2)CC1
[12]
  IC50: 17 nM
[11]
  pKa: 1.9
[1]
  Time: 24 h
[2]
  OEA level increase (activity call): Active
[13]
  IC50: 17 nM
[3]
  FAAH inhibition (PEA level increase), active/inactive: Active
[14]
  Kp: 3.28

## O=C(Nc1cccnc1)N1CCN(Cc2cc(Cl)cc(Oc3ccc(Cl)cc3)c2)CC1
[15]
  Drug uptake: Dose-dependent effect
[12]
  IC50: 76 nM
[1]
  Time: 24 h
[2]
  OEA level increase (activity call): Active
[13]
  IC50: 8 nM
[3]
  FAAH inhibition (PEA level increase), active/inactive: Active
[14]
  Kp: 1.26
[16]
  Drug uptake: Dose-dependent effect

## O=C(Nc1cccnc1)N1CCN(Cc2cccc(Oc3ccc(Cl)cc3)c2)CC1
[5]
  clearance: 11.5 mL/min/kg
[11]
  pKa: 5.25
[9]
  Vd: 3.2 L/kg
[1]
  Time: 24 h
[17]
  inhibition: Active
[18]
  Kp: 2.62
[14]
  Kp: 2.62
[19]
  Kp: 2.62

## O=C(Nc1cccnc1)N1CCN(Cc2cccc(Oc3ccc(C(F)(F)F)cc3)c2)CC1
[20]
  inhibition: Active
[21]
  inhibition: Active
[1]
  Time: 24 h
[14]
  Kp: 1.99

## O=C(Nc1cccnc1)N1CCN(Cc2cccc(Oc3ccc(Br)cc3)c2)CC1
[5]
  clearance: 13.3 mL/min/kg
[12]
  IC50: 20 nM
[8]
  bioavailability: 100%
[9]
  Vd: 2.8 L/kg
[1]
  Time: 24 h
[13]
  IC50: 2.4 nM
[14]
  Kp: 1.58

## O=C(Nc1cnccc1Cl)N1CCN(Cc2cccc(Oc3ccc(F)cc3)c2)CC1
[12]
  IC50: 48 nM
[1]
  Time: 24 h
[2]
  OEA level increase (activity call): Active
[13]
  IC50: 3.3 nM
[3]
  FAAH inhibition (PEA level increase), active/inactive: Active
[14]
  Kp: 0.67

## O=C(Nc1cnccc1Cl)N1CCN(Cc2cccc(Oc3ccc(Cl)cc3)c2)CC1
[5]
  clearance: 46.5 mL/min/kg
[12]
  IC50: 20 nM
[8]
  bioavailability: 18%
[11]
  pKa: 3.85
[9]
  Vd: 3.33 L/kg
[1]
  Time: 24 h
[2]
  OEA level increase (activity call): Active
[13]
  IC50: 1.3 nM
[3]
  FAAH inhibition (PEA level increase), active/inactive: Active
[14]
  Kp: 1.18

## O=C(Nc1nn[nH]n1)N1CCN(Cc2cccc(Oc3ccc(Cl)cc3)c2)CC1
[22]
  inhibition: Active
[23]
  Activity: <10%
[24]
  Time: 24 h
[25]
  inhibition: Active

## O=C(Nc1cnccn1)N1CCN(Cc2cccc(Oc3ccc(Cl)cc3)c2)CC1
[5]
  clearance: 15.5 mL/min/kg
[26]
  inhibition: Active
[12]
  IC50: 84 nM
[8]
  bioavailability: 35%
[11]
  pKa: 0.6
[27]
  Activity: 10%
[9]
  Vd: 4.11 L/kg
[1]
  Time: 24 h
[2]
  OEA level increase (activity call): Active
[3]
  FAAH inhibition (PEA level increase), active/inactive: Active

## O=C(Nc1ccccc1)N1CCN(Cc2cccc(Oc3ccc(Cl)cc3)c2)CC1
[1]
  Time: 24 h
[28]
  Kp: 3.64

## O=C(Nc1ccon1)N1CCN(Cc2cccc(Oc3ccc(Cl)cc3)c2)CC1
[5]
  clearance: 10 mL/min/kg
[8]
  bioavailability: 50%
[9]
  Vd: 2.6 L/kg
[1]
  Time: 24 h
[2]
  OEA level increase (activity call): Active
[3]
  FAAH inhibition (PEA level increase), active/inactive: Active

## O=C(Nc1cccnc1)N1CCC(Cc2cccc(Oc3ccc(Cl)cn3)c2)CC1
[12]
  IC50: 22 nM
[1]
  Time: 24 h
[2]
  OEA level increase (activity call): Active
[13]
  IC50: 1 nM
[3]
  FAAH inhibition (PEA level increase), active/inactive: Active
[14]
  Kp: 0.45

## O=C(Nc1noc2ccccc12)N1CCN(Cc2cccc(Oc3ccc(Cl)cc3)c2)CC1
[5]
  clearance: 9.33 mL/min/kg
[12]
  IC50: 8 nM
[8]
  bioavailability: 44%
[9]
  Vd: 2.48 L/kg
[1]
  Time: 24 h
[2]
  OEA level increase (activity call): Active
[3]
  FAAH inhibition (PEA level increase), active/inactive: Active

## O=C(Nc1cccnc1)N1CCN(Cc2cccc(Oc3ccc(F)cc3)c2)CC1
[5]
  clearance: 10 mL/min/kg
[12]
  IC50: 290 nM
[8]
  bioavailability: 100%
[9]
  Vd: 4 L/kg
[1]
  Time: 24 h
[2]
  OEA level increase (activity call): Active
[13]
  IC50: 16 nM
[3]
  FAAH inhibition (PEA level increase), active/inactive: Active
[14]
  Kp: 1.57
